Each block holds one compound with its values, some of them ahead of it.
Columns and labels:
PcIDS1 [1] = biological target: T1, PcIDS1 (Phaedon cochleariae, UniProt M1JS91); assay: thermal shift assay (Sypro Orange); format: binding; settings: 5 mM MgCl2, pH 7.0
T1 construct: N-terminal signal peptide (residues 1-85) removed; N-terminal His6-SUMO tag cut with Ulp1; E. coli BL21(DE3); homodimer; C-terminal residue A429
T1 sequence (M1JS91 86-429): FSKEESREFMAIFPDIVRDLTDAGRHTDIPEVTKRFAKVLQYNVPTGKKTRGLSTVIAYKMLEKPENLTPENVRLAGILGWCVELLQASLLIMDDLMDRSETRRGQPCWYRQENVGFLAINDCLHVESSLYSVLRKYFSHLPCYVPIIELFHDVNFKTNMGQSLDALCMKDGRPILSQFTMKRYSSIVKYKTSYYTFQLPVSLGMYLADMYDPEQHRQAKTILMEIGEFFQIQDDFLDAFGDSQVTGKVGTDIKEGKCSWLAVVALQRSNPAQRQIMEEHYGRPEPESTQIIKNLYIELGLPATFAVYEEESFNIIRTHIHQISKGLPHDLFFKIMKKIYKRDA

PcIDS1 [2] = biological target: T1, PcIDS1; assay: crystal structure; format: binding

dTm (PcIDS1 [1]; allylic and homoallylic sites): 7 °C
Structure (SMILES): C=C(C)CCOP(=O)(O)OP(=O)(O)O [IPP, isopentenyl pyrophosphate]

dTm (PcIDS1 [1]): 7 °C
Structure (SMILES): CC(C)=CCC/C(C)=C/CC/C(C)=C/COP(=O)(O)OP(=O)(O)O [FPP, farnesyl pyrophosphate]

crystal structure (PcIDS1 [2]; Mg2+, IPP added but not bound, allylic site): 3-Br-GPP mimics GPPAl coordination
Structure (SMILES): CC(C)=CCC/C(Br)=C/COP(=O)(O)OP(=O)(O)O [3-Br-GPP]

dTm (PcIDS1 [1]; allylic site in the structure): 17 °C
Structure (SMILES): CC(C)=CCC/C(C)=C/COP(=O)(O)OP(=O)(O)O [GPP, geranyl pyrophosphate]
crystal structure (PcIDS1 [2]; Mn2+, second site, allosteric): contains well-defined electron density for a second GPP molecule (GPPAllo; Fig. 3h)

dTm (PcIDS1 [1]; 200 µM ligand, allylic site): 28 °C
Structure (SMILES): O=P(O)(O)C(O)(Cn1ccnc1)P(=O)(O)O [ZOL, zoledronic acid]

From article PMC10396970, “Metal-dependent enzyme symmetry guides the biosynthetic flux of terpene precursors” (Nature Chemistry, 2023)
